Laboratory results published in US20120302573A1, “METHODS OF INHIBITING PRO MATRIX METALLOPROTEINASE ACTIVATION” (priority 2011, published 2012).

Tests used:
[1] = system: rats with SCW-induced arthritis; assay: Efficacy in rats with SCW-induced arthritis (ankle thickness, clinical score); format: in vivo, rat
Experimental: To induce arthritis, Female Lewis (LEW/N) rats, 5-6 weeks of age (80-100 g) were injected (i.p.) with SCW PG-PS as described above. Eighteen days later, arthritis was well established. Calipers were used to measure the width (anterior to posterior surface) of the left and right hind ankles of each rat. Each ankle was measured 3 times and averaged, and treatment groups were randomized based on ankle thickness (Table 7). Commencing on day 18, randomized groups of arthritic rats (n=5 rats/group) received vehicle or 5, 20, or 50 mg/kg Compound α BID by oral gavage. Vehicle consisted of an aqueous mixture containing 2% (v:v) N-methylpyrrolidone, 5% (v:v) glycerine, and 20% (w:v) captisol. Treatment continued daily through the morning of day 26.
By day 18 mean ankle thickness was increased an average of >4.4 mm compared to disease free rats. Rats treated with vehicle alone continued to gradually develop a more severe arthritis based on ankle thickness measurements over the eight-day treatment period (Table 7). […] By day 26, the disease associated increase in ankle thickness had been reduced 27, 37, and 46 percent by 5, 20, and 50 mg/kg Compound α, respectively.
Hind paw inflammation clinical scores were assigned based on swelling and erythema.

proMMP9 = molecular target: T1, proMMP9 (Homo sapiens, UniProt P14780); assay: Activation of proMMP9 by human fetal lung fibroblast (HFL-1) cultures (Western blot); format: cell-based; conditions: 3.3 μM, 72 hrs, mAb-L51/82
T1 construct: host or cells: HFL-1
Experimental: Compound α was assessed additionally for ability to block the maturation of proMMP9 to active MMP9 in cultures of human fetal lung fibroblasts (HFL-1, American Type Culture Collection #CCL-153). Unlike rat synoviocytes, HFL-1 cells were unable to process proMMP9 to the active form without addition of neutrophil elastase. […] Rather, the function of elastase in this assay may be to inactivate tissue inhibitors of matrix metalloproteinases (TIMPs) that repress endogenous pathways of MMP9 activation (Am J Respir Crit Care Med; 1999; 159:1138-46).
HLF-1 were maintained in monolayer culture in DMEM with 10% FCS and were used between passage numbers 5-15. HLF-1 were embedded in collagen gels as described for rat SCW synoviocytes (vida supra). […] The plates were cultured an additional 72 hrs, at which time MMP9 secreted into the conditioned media was bound to gelatin-sepharose and evaluated by Western blot analysis as described for the rat synoviocyte cultures (vida supra). mAb-51/82 detected three forms of MMP9 in HFL-1 cultures. […]
A second experiment was performed to determine if the 80 kD form was mature active MMP9 and to determine the potency of Compound α as an inhibitor of MMP9 maturation in this assay. […] In the absence of Compound α, pAb-1246 readily detected MMP9 with an electrophoretic mobility of approximately 80 kD. […]

T1 sequence (P14780 20-707 limits assumed): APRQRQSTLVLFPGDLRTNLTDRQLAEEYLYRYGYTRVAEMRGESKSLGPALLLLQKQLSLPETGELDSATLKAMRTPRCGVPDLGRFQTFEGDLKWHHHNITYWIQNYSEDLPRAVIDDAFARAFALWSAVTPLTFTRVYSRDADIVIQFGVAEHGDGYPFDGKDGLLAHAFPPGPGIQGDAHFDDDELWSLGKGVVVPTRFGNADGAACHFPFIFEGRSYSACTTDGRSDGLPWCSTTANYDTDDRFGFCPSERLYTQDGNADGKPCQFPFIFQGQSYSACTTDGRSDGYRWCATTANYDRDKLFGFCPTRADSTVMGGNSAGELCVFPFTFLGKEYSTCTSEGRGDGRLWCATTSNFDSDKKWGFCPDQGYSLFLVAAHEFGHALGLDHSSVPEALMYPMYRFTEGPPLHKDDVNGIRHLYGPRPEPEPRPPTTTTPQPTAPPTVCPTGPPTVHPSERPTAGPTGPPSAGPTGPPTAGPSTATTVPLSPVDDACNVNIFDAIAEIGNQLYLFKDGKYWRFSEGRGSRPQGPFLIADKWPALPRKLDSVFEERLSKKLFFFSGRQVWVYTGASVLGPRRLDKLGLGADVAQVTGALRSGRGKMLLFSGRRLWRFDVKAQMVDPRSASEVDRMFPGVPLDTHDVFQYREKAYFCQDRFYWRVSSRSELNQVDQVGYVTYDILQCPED

- Signal Total (proMMP9): 91346 INT*mm^2
Compound: Cc1nc(C)c(-c2csc(Nc3cc(S(N)(=O)=O)ccc3OC(C)C)n2)s1 [Compound α, 3-(2′,4′-Dimethyl-[4,5′]bithiazolyl-2-ylamino)-4-isopropoxy-benzenesulfonamide.HBr]
- Day 26 % Inh of disease associated increase in ankle thickness ([1]; 5 mg/kg BID oral): 27%
- Day 26 % Inh of disease associated increase in ankle thickness ([1]; 20 mg/kg BID oral): 37%
- Day 26 % Inh of disease associated increase in ankle thickness ([1]; 50 mg/kg BID oral): 46%
